Source: patent US20220387602A1, “BIFUNCTIONAL DEGRADERS AND THEIR METHODS OF USE” (NOVARTIS AG, priority 2019, published 2022)

How the values were obtained:
CRBN [1] = molecular target: T1, CRBN (Homo sapiens, UniProt Q96SW2); assay: CRBN displacement assay Format 2a (fluorescence polarization, 1536-well, Envision reader); type: binding
In short: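 Competition format: compound first equilibrated with CRBN protein (nominally 40 nM) for 45 min at RT, then challenged 45 min with 5 nM BodipyFL-conjugated lenalidomide tracer. FP measured at 480 nm excitation/535 nm emission; AC50 derived by four-parameter logistic fit of %-saturation.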

CRBN [2] = molecular target: T1, CRBN; assay: CRBN displacement assay Format 2b (as 2a, quadruplicate, PHERAstar reader); type: binding
Procedure: Assay conditions are similar to Format 2a with the exception of • a. The assay run in quadruplicate • b. PHERAstar reader (BMG Labtech, Offenburg, Germany) was used instead of an Envision reader • c. For the determination of AC50 values, assays were performed at room temperature in 1536-well plates with a total assay volume of […] per well. The test compounds were dissolved and diluted in 100% DMSO. For the assays, 30 nL of DMSO or compound solution were added per well, followed by the addition of 3 μL protein solution (80 nM protein in 1× assay buffer).

hTNNI3K WT = molecular target: T2, hTNNI3K WT (Homo sapiens, UniProt Q59H18); assay: TNNI3K degradation in HEK293 cells overexpressing hTNNI3K WT (western blot); type: cell-based; conditions: FIGS. 4A-4B; for TNNI3K degradation (western blot): concentration dependent; for concentration from which no residual TNNI3K was detected: western blot, 18 hours
T2 construct: expressed in transfected cells
T2 sequence (Q59H18 1-835): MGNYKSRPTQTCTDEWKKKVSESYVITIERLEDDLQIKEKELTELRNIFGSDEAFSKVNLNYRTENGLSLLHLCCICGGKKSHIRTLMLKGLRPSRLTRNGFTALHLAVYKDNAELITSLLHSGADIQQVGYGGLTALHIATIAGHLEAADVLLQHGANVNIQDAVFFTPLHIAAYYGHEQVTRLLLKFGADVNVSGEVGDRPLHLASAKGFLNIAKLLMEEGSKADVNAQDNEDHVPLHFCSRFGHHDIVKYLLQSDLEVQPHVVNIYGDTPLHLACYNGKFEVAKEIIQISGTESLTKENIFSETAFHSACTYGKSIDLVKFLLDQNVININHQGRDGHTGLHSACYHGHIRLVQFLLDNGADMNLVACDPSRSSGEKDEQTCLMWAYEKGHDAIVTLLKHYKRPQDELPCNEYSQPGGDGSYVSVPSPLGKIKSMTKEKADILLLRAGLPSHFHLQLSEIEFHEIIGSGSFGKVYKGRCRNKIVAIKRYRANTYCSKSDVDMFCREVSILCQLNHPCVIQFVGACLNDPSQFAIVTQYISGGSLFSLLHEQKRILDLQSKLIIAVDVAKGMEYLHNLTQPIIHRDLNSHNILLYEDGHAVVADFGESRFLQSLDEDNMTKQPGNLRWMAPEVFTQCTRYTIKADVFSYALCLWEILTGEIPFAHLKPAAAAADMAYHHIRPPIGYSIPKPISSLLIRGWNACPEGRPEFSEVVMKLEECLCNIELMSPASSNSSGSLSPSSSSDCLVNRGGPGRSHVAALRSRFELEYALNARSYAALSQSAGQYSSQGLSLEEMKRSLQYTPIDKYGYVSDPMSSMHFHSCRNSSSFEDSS
Procedure: HEK293-hTNNI3K stable cells were seeded at 400,000 cells/well in 6-well plate and incubated at 37° C. and 5% CO2 overnight in DMEM containing 10% FBS. The following day growth media was replaced with low-serum media containing DMEM with 0.5% FBS and incubated at 37° C. and 5% CO2 overnight. Following overnight serum starvation, cells were treated with compounds at 20 μM starting dose with 1:5 serial dilution prepared in low-serum media. Media was removed and compounds were added to 6-well plate at 2 mL per well and cells were incubated at 37° C. and 5% CO2 for 18 hours. Following compound treatment cells were washed with cold DPBS containing protease/phosphatase inhibitor cocktail (Thermo #1861284) and lysed in RIPA buffer on ice (Pierce #89900, also containing protease/phosphatase inhibitors). Following sonication and frequent vortexing at 4° C. for approximately 1 hour, samples were centrifuged at 14,000 rpm for 20 minutes. Supernatants were collected for protein samples. Protein concentration was determined using BioRad DC Protein Assay (FIGS. 3A and 3C).
Samples for western blotting were prepared in loading buffer (Thermo #NP0007) and 8 μg protein was loaded per lane in 4-12% Novex Bis-Tris gel and run at 60V for approximately 1 hour. Gels were transferred to PVDF membrane using semi-dry transfer device iBlot 2 from Thermo Scientific. Blots were blocked using Superblock T20 blocking solution for 2 hours at room temperature (Thermo #37536). Blots were then incubated with primary antibodies overnight with gentle shaking at 4° C. (TNNI3K #ab136954 and Beta-Actin CST #3700) at 1:1000 and 1:2000 dilution respectively. Following overnight primary antibody incubation, blots were washed 3 times on rocker for 5 minutes each with 1×TBS-T at room temperature. Blots were then incubated with secondary HRP-anti-rabbit at 1:2000 dilution (CST #7074) for 2 hours at room temperature. Blots were then washed with 1×TBS-T 3 times on rocker for 5 minutes each. Protein bands were detected using BioRad Chemi-Doc station and Supersignal West Dura substrate (Thermo #34075). Protein bands were quantified using ImageJ software. TNNI3K bands were normalized to beta-actin loading control. Data are graphed by fold change of cpd over DMSO control.
Here the amount of total normalized TNNI3K expression levels were monitored upon compound treatment in a dose dependent manner. IC50 refers to the concentration at which 50% reduction in protein expression was observed.

[3] = concentration at which 50% of reference probe Compound HH is displaced, 40 nM protein, 5 nM probe, read-out: CRBN AC50 [μM] Format 2a
[4] = concentration at which 50% of reference probe Compound HH is displaced, quadruplicate, read-out: CRBN AC50 [μM] Format 2b

T1 sequence (Q96SW2 whole entry): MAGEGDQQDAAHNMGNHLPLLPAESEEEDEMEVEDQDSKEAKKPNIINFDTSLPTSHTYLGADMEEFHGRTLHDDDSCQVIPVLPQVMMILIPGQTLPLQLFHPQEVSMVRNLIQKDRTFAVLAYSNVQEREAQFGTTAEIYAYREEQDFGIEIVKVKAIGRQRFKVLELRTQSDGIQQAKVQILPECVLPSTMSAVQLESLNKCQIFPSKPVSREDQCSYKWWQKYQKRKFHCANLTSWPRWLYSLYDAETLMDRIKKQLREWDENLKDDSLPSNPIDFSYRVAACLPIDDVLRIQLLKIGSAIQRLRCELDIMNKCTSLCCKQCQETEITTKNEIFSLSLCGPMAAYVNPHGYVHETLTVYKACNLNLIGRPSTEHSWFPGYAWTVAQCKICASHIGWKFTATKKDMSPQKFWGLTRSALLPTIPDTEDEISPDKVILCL

AC50 (CRBN [1]; [3]) [µM]	AC50 (CRBN [2]; [4]) [µM]	Compound	further results
29.4	18	COC(=O)c1cncc(N2CCC(=O)NC2=O)c1 [ILB-72, Methyl 5-(2,4-dioxotetrahydropyrimidin-1(2H)-yl)nicotinate]	
0.5	0.3	O=C1CCN(c2cncc(O)c2)C(=O)N1 [ILB-77, 1-(5-Hydroxypyridin-3-yl)dihydropyrimidine-2,4(1H,3H)-dione]	
5.72	5.07	CCOC(=O)c1cncc(N2CCC(=O)NC2=O)c1 [ILB-78, Ethyl 5-(2,4-dioxotetrahydropyrimidin-1(2H)-yl)nicotinate]	
6.01	8	CCOC(=O)Cc1cncc(N2CCC(=O)NC2=O)c1 [ILB-71, Ethyl 2-(5-(2,4-dioxotetrahydropyrimidin-1(2H)-yl)pyridin-3-yl)acetate]	
		CNS(=O)(=O)c1ccc(N(C)C)c(Nc2ncnc3cc(OCCCN4CCC5(CC4)CN(CC#Cc4ccc(N6CCC(=O)NC6=O)cc4)CCO5)ccc23)c1 [Compound 22, 4-(dimethylamino)-3-((7-(3-(4-(3-(4-(2,4-dioxotetrahydropyrimidin-1(2H)-yl)phenyl)prop-2-yn-1-yl)-1-oxa-4,9-diazaspiro[5.5]undecan-9-yl)propoxy)quinazolin-4-yl)amino)-N-methylbenzenesulfonamide]	TNNI3K degradation (western blot) (hTNNI3K WT): full degradation; concentration from which no residual TNNI3K was detected (hTNNI3K WT): 32 nM
		O=C1CCN(c2cncc(Cl)c2)C(=O)N1 [ILB-73, 1-(5-Chloropyridin-3-yl)dihydropyrimidine-2,4(1H,3H)-dione]	AC50 (CRBN [1]): 15 µM; AC50 (CRBN [2]): 11.9 µM
		CNS(=O)(=O)c1ccc(N(C)C)c(Nc2ncnc3cc(OCCCN4CCN(C(=O)N5CCN(CCC#Cc6ccc(N7CCC(=O)NC7=O)cc6)CC5)CC4)ccc23)c1 [Compound 21, 4-(dimethylamino)-3-((7-(3-(4-(4-(4-(4-(2,4-dioxotetrahydropyrimidin-1(2H)-yl)phenyl)but-3-yn-1-yl)piperazine-1-carbonyl)piperazin-1-yl)propoxy)quinazolin-4-yl)amino)-N-methylbenzenesulfonamide]	TNNI3K degradation (western blot) (hTNNI3K WT): full degradation; concentration from which no residual TNNI3K was detected (hTNNI3K WT): 6 nM
6.28	4.61	C=C(C)c1cncc(N2CCC(=O)NC2=O)c1 [ILB-74, 1-(5-(Prop-1-en-2-yl)pyridin-3-yl)dihydropyrimidine-2,4(1H,3H)-dione]	
		CC(O)c1ccc(N2CCC(=O)NC2=O)cn1 (centres unmarked) [ILB-75, 1-(6-(1-Hydroxyethyl)pyridin-3-yl)dihydropyrimidine-2,4(1H,3H)-dione]	AC50 (CRBN [1]): > 50 µM; CRBN Amax* (% at 50 μM) Format 2a (CRBN [1]; greatest effect as % displacement of the reference probe at the highest concentration tested (50 μM), given where AC50 >50 μM, 45 min): 40%; AC50 (CRBN [2]): 28.7 µM
8.09	15.3	O=C1CCN(c2cncc(Br)c2)C(=O)N1 [ILB-76, 1-(5-Bromopyridin-3-yl)dihydropyrimidine-2,4(1H,3H)-dione]	
		O=C1CCN(c2cn[nH]c2)C(=O)N1 [ILB-79, 1-(1H-Pyrazol-4-yl)dihydropyrimidine-2,4(1H,3H)-dione]	AC50 (CRBN [1]): 7.15 µM; AC50 (CRBN [2]): 6.78 µM
